Experimental findings from patent US9067871B2, “Aminotetraline derivatives, pharmaceutical compositions containing them, and their use in therapy” (ABBVIE DEUTSCHLAND GMBH & CO KG, priority 2009, dated 2015) are described below.

Structures can show the parent of a compound that is named as a salt.

Sequence of human GlyT1c transporter (P48067 whole entry): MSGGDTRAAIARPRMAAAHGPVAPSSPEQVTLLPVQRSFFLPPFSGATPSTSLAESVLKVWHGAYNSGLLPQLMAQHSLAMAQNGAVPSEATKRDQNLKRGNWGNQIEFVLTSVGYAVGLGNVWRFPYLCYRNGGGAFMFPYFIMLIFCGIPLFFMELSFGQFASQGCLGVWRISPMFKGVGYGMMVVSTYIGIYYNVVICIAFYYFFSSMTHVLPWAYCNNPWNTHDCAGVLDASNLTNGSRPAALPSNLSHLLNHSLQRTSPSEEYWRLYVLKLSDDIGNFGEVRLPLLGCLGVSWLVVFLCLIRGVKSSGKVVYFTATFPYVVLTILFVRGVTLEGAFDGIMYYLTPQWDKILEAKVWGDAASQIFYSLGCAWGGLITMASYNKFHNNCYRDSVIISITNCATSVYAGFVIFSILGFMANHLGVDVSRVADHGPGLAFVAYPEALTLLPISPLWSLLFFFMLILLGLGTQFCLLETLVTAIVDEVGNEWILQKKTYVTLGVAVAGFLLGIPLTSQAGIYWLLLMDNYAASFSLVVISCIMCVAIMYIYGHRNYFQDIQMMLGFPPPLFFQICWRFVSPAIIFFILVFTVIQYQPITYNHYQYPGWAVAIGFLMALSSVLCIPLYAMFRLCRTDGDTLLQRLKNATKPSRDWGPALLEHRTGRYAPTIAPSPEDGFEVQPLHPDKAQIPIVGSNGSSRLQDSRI

In one assay the target is human GlyT1c transporter (Homo sapiens (Human), UniProt P48067). The assay can be described thus: Radioligand binding assay using recombinant CHO cell membranes expressing human GlyT1. To be noted: human GlyT1c-expressing CHO cell membranes; hydrochloride; read-out: radioligand binding Kiapp. The source says:
2. Radioligand binding assays using recombinant CHO cell membranes expressing human GlyT1: […]
For `NC1CCc2ccc(OCCNS(=O)(=O)CCC(F)(F)F)cc2C1Cc1ccccc1` (stereo not shown) [Example 100, 3,3,3-Trifluoro-propane-1-sulfonic acid [2-(7-amino-8-benzyl-5,6,7,8-tetrahydronaphthalen-2-yloxy)-ethyl]amide hydrochloride], the Ki is at most 1000 nM.
As to `Cn1cnc(S(=O)(=O)NCCOc2ccc3c(c2)C(Cc2ccccc2)C(N2CCCC2)CC3)c1` (stereo not shown) [Example 116, N-(2-(8-Benzyl-7-(pyrrolidin-1-yl)-5,6,7,8-tetrahydronaphthalen-2-yloxy)ethyl)-1-methyl-1H-imidazole-4-sulfonamide hydrochloride], the Ki was at most 10 nM.

The same assay, now with this note: human GlyT1c-expressing CHO cell membranes; read-out: radioligand binding Kiapp.
Turning to `CN(CCOc1ccc2c(c1)C(Cc1ccccc1)C(N)CC2)S(=O)(=O)c1cn(C)cn1` (stereo not shown) [Example 98, 1-Methyl-1H-imidazole-4-sulfonic acid [2-(7-amino-8-benzyl-5,6,7,8-tetrahydronaphthalen-2-yloxy)-ethyl]-methyl-amide hydrochloride], the Ki is at most 1000 nM.
On the same count and under the same terms, under `NC1CCc2ccc(OCCNS(=O)(=O)c3ccccc3)cc2C1Cc1ccccc1` (stereo not shown) [Example 99, N-[2-(7-Amino-8-benzyl-5,6,7,8-tetrahydro-naphthalen-2-yloxy)-ethyl]-benzenesulfonamide hydrochloride] stands at most 100 nM; under `CN(CCOc1ccc2c(c1)C(Cc1ccccc1)C(N1CCCC1)CC2)S(=O)(=O)c1cn(C)cn1` (stereo not shown) [Example 101, 1-Methyl-1H-imidazole-4-sulfonic acid [2-(8-benzyl-7-pyrrolidin-1-yl-5,6,7,8-tetrahydronaphthalen-2-yloxy)-ethyl]-methyl-amide hydrochloride], at most 100 nM.
On the same count and under the same terms, then `NC1CCc2ccc(OCCNS(=O)(=O)C3CC3)cc2C1Cc1ccccc1` (stereo not shown) [Example 102, Cyclopropanesulfonic acid [2-(7-amino-8-benzyl-5,6,7,8-tetrahydro-naphthalen-2-yloxy)ethyl]-amide hydrochloride], with at most 1000 nM.
On the same count and under the same terms, under `CCC(=O)NCCOc1ccc2c(c1)C(Cc1ccccc1)C(N)CC2` (stereo not shown) [Example 103, N-[2-(7-Amino-8-benzyl-5,6,7,8-tetrahydro-naphthalen-2-yloxy)-ethyl]-propionamide hydrochloride] stands at most 10000 nM.
As for `Cn1cnc(S(=O)(=O)NCCOc2ccc3c(c2)C(Cc2ccc(Cl)c(Cl)c2)C(N)CC3)n1` (stereo not shown) [Example 104, 1-Methyl-1H-[1,2,4]triazole-3-sulfonic acid {2-[7-amino-8-(3,4-dichloro-benzyl)-5,6,7,8-tetrahydro-naphthalen-2-yloxy]-ethyl}-amide], the Ki is at most 1000 nM.
The same measure, in the same setting: then `CN(CCOc1ccc2c(c1)C(Cc1ccccc1)C(N1CCC1)CC2)S(=O)(=O)c1cn(C)cn1` (stereo not shown) [Example 105, 1-Methyl-1H-imidazole-4-sulfonic acid [2-(7-azetidin-1-yl-8-benzyl-5,6,7,8-tetrahydronaphthalen-2-yloxy)-ethyl]-methyl-amide], with at most 100 nM; and `NC1CCc2ccc(OCCNS(=O)(=O)CC3CCC3)cc2C1Cc1ccc(Cl)c(Cl)c1` (stereo not shown) [Example 106, N-{2-[7-Amino-8-(3,4-dichloro-benzyl)-5,6,7,8-tetrahydro-naphthalen-2-yloxy]-ethyl}-Ccyclobutyl-methanesulfonamide hydrochloride], with at most 1000 nM.
On to `CCCS(=O)(=O)NCCOc1ccc2c(c1)C(Cc1cccc(F)c1)C(N)CC2` (stereo not shown) [Example 107, Propane-1-sulfonic acid {2-[7-amino-8-(3-fluoro-benzyl)-5,6,7,8-tetrahydro-naphthalen-2-yloxy]-ethyl}-amide hydrochloride], for which the Ki is at most 100 nM.
Consider `CN(CCOc1ccc2c(c1)C(Cc1ccc(Cl)c(Cl)c1)C(N)CC2)S(=O)(=O)CC1CC1` (stereo not shown) [Example 108, N-{2-[7-Amino-8-(3,4-dichloro-benzyl)-5,6,7,8-tetrahydro-naphthalen-2-yloxy]-ethyl}-C-cyclopropyl-N-methyl-methanesulfonamide hydrochloride], for which the Ki was at most 10 nM.
Take `CN(CCOc1ccc2c(c1)C(Cc1ccccc1)C(N)CC2)S(=O)(=O)c1cnn(C)c1` (stereo not shown) [Example 109, 1-Methyl-1H-pyrazole-4-sulfonic acid [2-(7-amino-8-benzyl-5,6,7,8-tetrahydro-naphthalen-2-yloxy)-ethyl]-methyl-amide]: the Ki was at most 100 nM.
With `CCN(CCOc1ccc2c(c1)C(Cc1ccc(Cl)c(Cl)c1)C(N)CC2)S(=O)(=O)c1cnn(C)c1` (stereo not shown) [Example 110, N-(2-(7-Amino-8-(3,4-dichlorobenzyl)-5,6,7,8-tetrahydronaphthalen-2-yloxy)ethyl)-N-ethyl-1-methyl-1H-pyrazole-4-sulfonamide], the Ki was at most 1000 nM.
On the same count and under the same terms, then `CN(CCOc1ccc2c(c1)C(Cc1ccccc1)C(N1CCCC1)CC2)S(=O)(=O)c1cnn(C)c1` (stereo not shown) [Example 111, 1-Methyl-1H-pyrazole-4-sulfonic acid [2-(8-benzyl-7-pyrrolidin-1-yl-5,6,7,8-tetrahydronaphthalen-2-yloxy)-ethyl]-methyl-amide hydrochloride], with at most 100 nM; and `CN(CCOc1ccc2c(c1)C(Cc1ccccc1)C(N1CCC1)CC2)S(=O)(=O)c1cnn(C)c1` (stereo not shown) [Example 112, 1-Methyl-1H-pyrazole-4-sulfonic acid [2-(7-azetidin-1-yl-8-benzyl-5,6,7,8-tetrahydronaphthalen-2-yloxy)-ethyl]-methyl-amide hydrochloride], with at most 100 nM.
Still for that read-out and setting: then `CCN(CCOc1ccc2c(c1)C(Cc1ccccc1)C(N)CC2)S(=O)(=O)c1cnn(C)c1` (stereo not shown) [Example 113, N-(2-(7-Amino-8-benzyl-5,6,7,8-tetrahydronaphthalen-2-yloxy)ethyl)-N-ethyl-1-methyl-1H-pyrazole-4-sulfonamide hydrochloride], with at most 100 nM; and `CCCCCS(=O)(=O)NCCOc1ccc2c(c1)C(Cc1ccc(Cl)c(Cl)c1)C(N)CC2` (stereo not shown) [Example 114, N-(2-(7-Amino-8-(3,4-dichlorobenzyl)-5,6,7,8-tetrahydronaphthalen-2-yloxy)ethyl)pentane-1-sulfonamide hydrochloride], with at most 1000 nM.
Turning to `CCCS(=O)(=O)NCCOc1ccc2c(c1)C(Cc1ccc(F)c(Cl)c1)C(N)CC2` (stereo not shown) [Example 120, N-(2-{[7-Amino-8-(3-chloro-4-fluorobenzyl)-5,6,7,8-tetrahydronaphthalen-2-yl]oxy}ethyl)propane-1-sulfonamide hydrochloride], the Ki is at most 100 nM.
Turning to `NC1CCc2ccc(OCCNS(=O)(=O)CC3CC3)cc2C1Cc1ccccc1` (stereo not shown) [Example 121, N-(2-{[7-Amino-8-benzyl-5,6,7,8-tetrahydronaphthalen-2-yl]oxy}ethyl)-1-cyclopropylmethanesulfonamide hydrochloride], the Ki was at most 10 nM.
In the case of `NC1CCc2ccc(OCCNC(=O)CC3CC3)cc2C1Cc1ccc(Cl)c(Cl)c1` (stereo not shown) [Example 122, N-(2-{[7-Amino-8-(3,4-dichlorobenzyl)-5,6,7,8-tetrahydronaphthalen-2-yl]oxy}ethyl)-2-cyclopropylacetamide hydrochloride], the Ki was at most 10000 nM.
On the same count and under the same terms, then `NC1CCc2ccc(OCCNC(=O)c3ccccc3)cc2C1Cc1ccc(Cl)c(Cl)c1` (stereo not shown) [Example 123, N-(2-{[7-Amino-8-(3,4-dichlorobenzyl)-5,6,7,8-tetrahydronaphthalen-2-yl]oxy}ethyl)benzamide hydrochloride], with at most 10000 nM.
